Values quoted from earlier work, collected in patent US20170046504A1, “SYSTEM FOR DETERMINING A SUITABILITY OF AN ACTIVE INGREDIENT TO BE APPLIED TRANSDERMALLY OR TRANSMUCOSALLY AND CORRESPONDING METHOD” (LTS Lohmann Therapie-Systeme AG, priority 2014, published 2017).

Columns and labels:
[1] = in vivo
[2] = assumed

For `CN1CCCC1c1cccnc1` (centres unmarked) [nicotine], the half-life period [1] is listed as 1 to 6 h and the “efficiency for oral administration” value [2] is listed as 20-45%.
